Data published in article PMC7274485, “A symbiotic bacterium of shipworms produces a compound with broad spectrum anti-apicomplexan activity” (PLoS Pathogens, 2020).
pEC50: −log10 of the molar value.

Legend:
rodent malaria = tested on: rodent malaria; parameters: method as in PMID 994322; details: cited from earlier work
Gram positive bacteria = details: cited from earlier work
Gram negative bacteria = details: cited from earlier work
NLRP3 inflammasome = tested on: NLRP3 inflammasome; parameters: method as in PMID 30183250; details: through activity as a potassium ionophore; cited from earlier work
poultry coccidiosis = tested on: poultry coccidiosis; parameters: method as in earlier work; details: cited from earlier work
[1] = tested on: hypoxia-inducible factor-1 transcription; parameters: method as in PMID 17256467; details: under hypoxic conditions; cited from earlier work
Plasmodium falciparum = assay: P. falciparum-infected erythrocyte proliferation, SYBR green incorporation; type: cell-based; details: infected erythrocytes, 72 hours; read-out: EC50 against P. falciparum
From the text: The maintenance of Plasmodium falciparum cultures and conducting of in vitro inhibitor response assays have been previously described.

In the case of C[C@@H]1CC[C@@H]2O[C@]13O[B-]14O[C@H]3C(=O)O[C@H]3C[C@@H](/C=C/C[C@@H](O)C(C)(C)[C@@H]5CC[C@@H](C)[C@](O5)(O1)[C@@H](O4)C(=O)O[C@H]1C[C@@H](/C=C/C[C@@H](O)C2(C)C)O[C@@H]1C)O[C@@H]3C.[Na+] [aplasmomycin], the “In vivo activity against rodent malaria” value (rodent malaria) is given as “active in vivo”.

For C[C@@H]1C(=O)C[C@@H](O)CC/C=C\C=C\CC[C@H](C)OC(=O)[C@@H]2O[B-]34O[C@@H](C(=O)O[C@@H](C)CC/C=C\C=C\CC[C@H](O)CC(=O)[C@@H](C)[C@@H]5CC[C@@H](C)[C@]2(O5)O3)[C@@]2(O[C@H]1CC[C@H]2C)O4.[Na+] [Tartrolon B], the “Activity against Gram positive bacteria” value (Gram positive bacteria) is listed as “activity against Gram positive”, the “Activity against Gram negative bacteria” value (Gram negative bacteria) is listed as “not Gram negative bacteria” and the “Activation of the NLRP3 inflammasome” value (NLRP3 inflammasome) is listed as “activate the NLRP3 inflammasome”.

In the case of CC(C)[C@@H](N)C(=O)O[C@H](C)[C@@H]1C/C=C\CC[C@H](O)C(C)(C)[C@@H]2CC[C@@H](C)[C@@]3(O2)O[B-]24O[C@@H](C(=O)O1)[C@]1(O[C@@H](CC[C@H]1C)C(C)(C)[C@H](O)CCC[C@@H]1C[C@H](OC(=O)[C@@H]3O2)[C@@H](C)O1)O4.[H+] [boromycin], the “In vivo activity against poultry coccidiosis” value (poultry coccidiosis) is given as “active in vivo”.

In the case of C[C@@H]1C(=O)C[C@@H](O)CC/C=C/C=C\CC[C@H](C)OC(=O)[C@@H]2O[B-]34O[C@@H](C(=O)O[C@@H](C)CC/C=C\C=C\CC[C@H](O)CC(=O)[C@@H](C)[C@@H]5CC[C@](C)(O)[C@]2(O5)O3)[C@@]2(O[C@H]1CC[C@]2(C)O)O4 [Tartrolon C], the “Inhibition of hypoxia-inducible factor-1 transcription” value [1] is listed as “inhibit hypoxia-inducible factor-1 transcription”.

C[C@H]1[C@@H](O)O[C@@H]2O[C@@]3(C)CC[C@H]4[C@H](C)CC[C@@H]1[C@@]24OO3 [DHA, dihydroartemesinin, reference compound] showed a pEC50 (Plasmodium falciparum) of 10.70.

In the case of C[C@@H]1C(=O)C[C@@H](O)CC/C=C/C=C\CC[C@H](C)OC(=O)C(O)[C@]2(O)O[C@@H](CC[C@H]2C)[C@H](C)C(=O)C[C@@H](O)CC/C=C/C=C\CC[C@H](C)OC(=O)C(O)[C@]2(O)O[C@H]1CC[C@H]2C (stereo partly drawn) [Tartrolon A], the “Activity against Gram positive bacteria” value (Gram positive bacteria) is listed as “activity against Gram positive” and the “Activity against Gram negative bacteria” value (Gram negative bacteria) is listed as “not Gram negative bacteria”.
